Assay results published in US9957265B2, “N-(2-cyano heterocyclyl) pyrazolo pyridones as janus kinase inhibitors” (Merck Sharp & Dohme Corp., priority 2013, dated 2018).

Key:
JAK2 = JAK2 (Homo sapiens (Human), UniProt O60674); experiment: Jak Biochemical HTRF Assay (JAK2); settings: read-out: JAK2 IC50, recombinant GST-tagged catalytic domain, [ATP] 8.5 μM, unit not given (compound concentrations tested given in nM)
JAK1 = JAK1 (Homo sapiens (Human), UniProt P23458); experiment: Jak Biochemical HTRF Assay (JAK1); settings: recombinant GST-tagged catalytic domain, [ATP] 31.8 μM, unit not given (compound concentrations tested given in nM)
From the text: Jak Biochemical HTRF Assay Protocol
Subsequent reagent additions employed an Agilent Bravo.

Chain of JAK2 (O60674 849-1124): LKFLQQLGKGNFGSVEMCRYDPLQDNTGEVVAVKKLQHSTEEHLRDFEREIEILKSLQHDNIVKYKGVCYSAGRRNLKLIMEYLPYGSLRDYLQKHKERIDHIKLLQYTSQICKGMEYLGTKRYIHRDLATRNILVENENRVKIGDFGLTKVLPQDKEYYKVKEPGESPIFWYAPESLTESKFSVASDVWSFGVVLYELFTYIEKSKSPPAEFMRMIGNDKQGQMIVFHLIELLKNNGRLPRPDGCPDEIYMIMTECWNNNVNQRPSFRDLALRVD
Chain of JAK1 (P23458 875-1153): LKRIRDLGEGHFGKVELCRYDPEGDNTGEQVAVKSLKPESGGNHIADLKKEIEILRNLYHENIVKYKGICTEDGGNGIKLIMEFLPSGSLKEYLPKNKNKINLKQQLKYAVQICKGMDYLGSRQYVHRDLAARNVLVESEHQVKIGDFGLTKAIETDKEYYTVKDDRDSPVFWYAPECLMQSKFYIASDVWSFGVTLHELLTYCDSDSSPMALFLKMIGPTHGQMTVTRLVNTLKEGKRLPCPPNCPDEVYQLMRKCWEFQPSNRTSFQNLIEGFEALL

| IC50 (JAK2) [nM] | IC50 (JAK1) [nM] | Structure (SMILES) |
| --- | --- | --- |
| 0.7 | 0.22 | CC1(C)CN(S(=O)(=O)c2ccc(Nc3nn([C@H]4COCC[C@@H]4C#N)c4cc[nH]c(=O)c34)cc2)CCO1 [Example 1-71, (3R,4S)-3-[3-({4-[(2,2-dimethylmorpholin-4-yl)sulfonyl]phenyl}amino)-4-oxo-4,5-dihydro-1H-pyrazolo[4,3-c]pyridin-1-yl]tetrahydro-2H-pyran-4-carbonitrile] |
| 0.2 | 0.1 | CC1(C)CCCN1S(=O)(=O)c1ccc(Nc2nn([C@H]3COCC[C@@H]3C#N)c3cc[nH]c(=O)c23)cc1 [Example 1-72, (3R,4S)-3-[3-({4-[(2,2-dimethylpyrrolidin-1-yl)sulfonyl]phenyl}amino)-4-oxo-4,5-dihydro-1H-pyrazolo[4,3-c]pyridin-1-yl]tetrahydro-2H-pyran-4-carbonitrile] |
| 0.7 | 0.35 | C[C@@H]1CN(S(=O)(=O)c2ccc(Nc3nn([C@H]4COCC[C@@H]4C#N)c4cc[nH]c(=O)c34)cc2)C[C@H](C)O1 [Example 1-73, (3R,4S)-3-{3-[(4-{[(cis)-2,6-dimethylmorpholin-4-yl]sulfonyl}phenyl)amino]-4-oxo-4,5-dihydro-1H-pyrazolo[4,3-c]pyridin-1-yl}tetrahydro-2H-pyran-4-carbonitrile] |
| 0.08 | 0.04 | CCN(C(C)(C)C)S(=O)(=O)c1ccc(Nc2nn([C@H]3COCC[C@@H]3C#N)c3cc[nH]c(=O)c23)cc1 [Example 1-79, N-(tert-butyl)-4-((1-((3R,4S)-4-cyanotetrahydro-2H-pyran-3-yl)-4-oxo-4,5-dihydro-1H-pyrazolo[4,3-c]pyridin-3-yl)amino)-N-ethylbenzenesulfonamide] |
| 0.89 | 0.03 | Cc1nc2ccc(Nc3nn([C@@H]4COCC[C@@H]4C#N)c4cc[nH]c(=O)c34)cc2s1 [Example 2-1, (3S,4S)-3-{3-[(2-methyl-1,3-benzothiazol-6-yl)amino]-4-oxo-4,5-dihydro-1H-pyrazolo[4,3-c]pyridin-1-yl}tetrahydro-2H-pyran-4-carbonitrile] |
| 0.16 | 0.05 | CC1(C)C(=O)Nc2cc(Nc3nn([C@H]4COCC[C@@H]4C#N)c4cc[nH]c(=O)c34)ccc21 [Example 2-2, (3R,4S)-3-{3-[(3,3-dimethyl-2-oxo-2,3-dihydro-1H-indol-6-yl)amino]-4-oxo-4,5-dihydro-1H-pyrazolo [4,3-c]pyridin-1-yl}tetrahydro-2H-pyran-4-carbonitrile] |
| 7.44 | 1.64 | CS(=O)(=O)c1cc(Nc2nn(C3COCC[C@@H]3C#N)c3cc[nH]c(=O)c23)ccc1Cl (stereo partly drawn) [Example 3-1, (3R,4S)-3-(3-((4-chloro-3-(methylsulfonyl)phenyl)amino)-4-oxo-4,5-dihydro-1H-pyrazolo[4,3-t]pyridin-1-yl)tetrahydro-2H-pyran-4-carbonitrile] |
